For series [1], the system named is Plasmodium falciparum. Put plainly: Hit confirmation in dose-response curve in NF54 nanoGlo assay, at 72h. Format: functional, organism-based, Erythrocyte. On the set-up: timepoint 72 hour. The conditions noted are these: Plasmodium falciparum, NF54, Erythrocyte, 72 h.
Series [2] concerns Plasmodium falciparum. In words: Hit confirmation in dose-response curve in NF54 pLDH assay, at 72h. On the set-up: timepoint 72 hour. Format: functional, organism-based, Erythrocyte. The conditions noted are these: Plasmodium falciparum, NF54, Erythrocyte, 72 h.
Series [3] deals with Plasmodium falciparum. In words: Hit confirmation in dose-response curve in Dd2 pLDH assay, at 72h. Format: functional, organism-based, Erythrocyte. On the set-up: timepoint 72 hour. The settings on record: Plasmodium falciparum, Dd2, Erythrocyte, 72 h.
Series [4] has as its system Plasmodium falciparum. Put plainly: Hit confirmation in dose-response curve in NF54 nanoGlo assay, at 12h. The class given is functional, organism-based, Erythrocyte. The settings on record: Plasmodium falciparum, NF54, Erythrocyte, 12 h. On the set-up: timepoint 12 hour.
Series [5] in a line: Hit confirmation in dose-response curve in HepG2 cytotoxicity assay, at 72h. Format: toxicity, cell-based, Homo sapiens. On the set-up: timepoint 72 hour. The conditions noted are these: human, HepG2 cells.

What is called IC50 is the concentration at which inhibition is half-maximal.

Regarding `Brc1cccc(NCCNC2CCN(Cc3cccnc3)CC2)c1`, the IC50 in the series on Plasmodium falciparum [1] was found to be 3.8 µM; in the series with Plasmodium falciparum [2], 3.8 µM; in the series with Plasmodium falciparum [3] it was 3.72 µM; in the series with Plasmodium falciparum [4] it was 8.51 µM. The molecule also showed an IC50 at 72 h in series [5] of more than 10 µM.

As for `COc1ccc(CNCc2cc3ccccc3[nH]2)cc1CN(C)C`, the IC50 in the series with Plasmodium falciparum [1] amounted to 3.39 µM; with Plasmodium falciparum [2], 3.47 µM; with Plasmodium falciparum [3], 2.29 µM; in the series with Plasmodium falciparum [4] it was 5.89 µM. Further, the IC50 at 72 h in series [5] was more than 10 µM.

For the molecule `CCN1CCN([C@H]2CCN(c3ccnc4ccncc34)C2)CC1`, the IC50 is 1.32 µM with Plasmodium falciparum [1], 1.15 µM in the series on Plasmodium falciparum [2], 1.12 µM with Plasmodium falciparum [3] and 2 µM in the series on Plasmodium falciparum [4]. In series [5], this molecule returned a concentration for half-maximal inhibition (IC50) at 72 h of more than 10 µM.

Take `COc1cc2nc(-c3ccc(F)c4cccnc34)nc(N)c2cc1OC`: the concentration for half-maximal inhibition (IC50) with Plasmodium falciparum [1] was 0.912 µM; in the series on Plasmodium falciparum [2] it was 1.1 µM; in the series with Plasmodium falciparum [3] it was 1.12 µM; with Plasmodium falciparum [4], 1.55 µM. In series [5], this molecule had a concentration for half-maximal inhibition (IC50) at 72 h of 1.02 µM.

On to `Cc1cc(O)c(Cl)cc1-c1cccc2c(N)ccnc12`, for which the IC50 was 1.17 µM in the series with Plasmodium falciparum [1], 1.48 µM with Plasmodium falciparum [2], 2.04 µM in the series on Plasmodium falciparum [3] and more than 10 µM in the series with Plasmodium falciparum [4]. In series [5], the 50% inhibitory concentration (IC50) at 72 h is more than 10 µM.

Turning to `Cc1cc(C)c(CN2CCN(C)CC2)cc1CNCCCn1ccnc1C`, the half-inhibitory concentration (IC50) in the series with Plasmodium falciparum [1] was 3.89 µM; with Plasmodium falciparum [2], 3.89 µM; in the series on Plasmodium falciparum [3], 3.39 µM; in the series on Plasmodium falciparum [4] it was 7.41 µM. In series [5], this molecule displayed an IC50 at 72 h of more than 10 µM.

Take `CN(C[C@H](O)COc1ccccc1CN1CCC(c2ccncc2)CC1)C1CCCCC1`: the IC50 with Plasmodium falciparum [1] was 5.89 µM; in the series on Plasmodium falciparum [2], 5.37 µM; in the series on Plasmodium falciparum [3], 5.5 µM; with Plasmodium falciparum [4] it was more than 10 µM. Also, the half-maximal inhibitory concentration (IC50) at 72 h in series [5] was more than 10 µM.

For the molecule `CCc1cc(Nc2ccc(N3CCOCC3)nc2)nc(-c2ccncc2)n1`, the IC50 was 3.72 µM with Plasmodium falciparum [1], 4.47 µM in the series with Plasmodium falciparum [2], 6.31 µM in the series on Plasmodium falciparum [3] and more than 10 µM in the series on Plasmodium falciparum [4]. The molecule further gave an IC50 at 72 h in series [5] of more than 10 µM.

For `O=C(NCc1cccc(-c2cccnc2)c1)N[C@H]1CCN(C2CCCCC2)C1`, the IC50 in the series on Plasmodium falciparum [1] was 3.98 µM; in the series with Plasmodium falciparum [2], 1.29 µM; in the series on Plasmodium falciparum [3], 4.47 µM; in the series with Plasmodium falciparum [4], more than 10 µM. The IC50 at 72 h in series [5] is more than 10 µM.

In the case of `COc1ccc(-c2cc(C(=O)Nc3ccc(N4CCN5CCCC5C4)cc3)c3c(C)noc3n2)cc1` (stereo not given), the IC50 in the series with Plasmodium falciparum [1] was 4.27 µM; in the series on Plasmodium falciparum [2], 7.59 µM; in the series on Plasmodium falciparum [3] it was 5.75 µM; with Plasmodium falciparum [4] it was 6.46 µM. The same molecule gave a 50% inhibitory concentration (IC50) at 72 h in series [5] of more than 10 µM.

Take `Cc1cccc(N2CCC(NCc3cc(C)cc(CN4CCN(C)CC4)c3C)CC2)c1`: the 50% inhibitory concentration (IC50) with Plasmodium falciparum [1] came out at 3.09 µM; in the series with Plasmodium falciparum [2] it was 2.95 µM; with Plasmodium falciparum [3], 3.02 µM; with Plasmodium falciparum [4] it was 5.89 µM. The same molecule registered an IC50 at 72 h in series [5] of more than 10 µM.

Consider `c1cncc(-c2ccc(CNC3CCN(Cc4cccs4)CC3)cc2)c1`, for which the half-maximal inhibitory concentration (IC50) with Plasmodium falciparum [1] was 2.88 µM; with Plasmodium falciparum [2], 3.72 µM; in the series on Plasmodium falciparum [3], 2.69 µM; in the series on Plasmodium falciparum [4], 7.94 µM. Besides, in series [5], the 50% inhibitory concentration (IC50) at 72 h was more than 10 µM.

`CC(C)c1ccc(-c2noc(CCN3CCN(CCCN(C)C)CC3)n2)cc1`: the IC50 was 7.94 µM in the series on Plasmodium falciparum [1], more than 10 µM in the series with Plasmodium falciparum [2], 8.51 µM in the series on Plasmodium falciparum [3] and more than 10 µM in the series on Plasmodium falciparum [4]. This molecule also yielded a concentration for half-maximal inhibition (IC50) at 72 h in series [5] of more than 10 µM.

As for `Cc1ccc2nc(NC[C@H]3CCN(C4CC4)C3)cc(C)c2c1`, the concentration for half-maximal inhibition (IC50) in the series with Plasmodium falciparum [1] was determined as 2.04 µM; in the series on Plasmodium falciparum [2] it was 3.02 µM; with Plasmodium falciparum [3], 2.45 µM; with Plasmodium falciparum [4], 3.16 µM. The IC50 at 72 h in series [5] was more than 10 µM.

As to `CN1CCN(CCNC2CCN3CCCC3C2)C(c2ccccc2)C1` (stereo not given), the IC50 with Plasmodium falciparum [1] is 4.17 µM; with Plasmodium falciparum [2], 4.27 µM; with Plasmodium falciparum [3], 3.8 µM; in the series on Plasmodium falciparum [4], more than 10 µM. Further, the IC50 at 72 h in series [5] is more than 10 µM.

As for `OC1(c2ccc(Cl)cc2)CCN(C[C@@H]2CCCN3CCCC[C@H]23)CC1`, the concentration for half-maximal inhibition (IC50) in the series on Plasmodium falciparum [1] is 3.98 µM; in the series with Plasmodium falciparum [2], 4.07 µM; in the series on Plasmodium falciparum [3], 3.72 µM; with Plasmodium falciparum [4], 7.41 µM. This molecule had an IC50 at 72 h in series [5] of more than 10 µM.

Turning to `CNc1nc(C)c(-c2ccnc(Nc3cccc(S(C)(=O)=O)c3)n2)s1`, the IC50 in the series on Plasmodium falciparum [1] was 2.82 µM; in the series on Plasmodium falciparum [2], more than 10 µM; in the series with Plasmodium falciparum [3], 6.46 µM; with Plasmodium falciparum [4], more than 10 µM. The molecule further registered a 50% inhibitory concentration (IC50) at 72 h in series [5] of 0.78 µM.

In the case of `N#Cc1ccc(N2C[C@H](COCC3CC3)C3(CCN(Cc4cccc(O)c4)CC3)C2)cc1C(F)(F)F`, the IC50 is 1.78 µM in the series with Plasmodium falciparum [1], 2.69 µM in the series with Plasmodium falciparum [2], 2.69 µM in the series on Plasmodium falciparum [3] and 4.68 µM with Plasmodium falciparum [4]. Moreover, in series [5], the IC50 at 72 h was more than 10 µM.

As for `O=C(CCc1nnc(-c2ccc(-c3ccccc3)cc2)o1)NC[C@@H]1CCCN2CCCC[C@H]12`, the 50% inhibitory concentration (IC50) stood at 4.07 µM in the series on Plasmodium falciparum [1], 5.13 µM with Plasmodium falciparum [2], 6.46 µM in the series with Plasmodium falciparum [3] and 8.51 µM with Plasmodium falciparum [4]. Besides, the IC50 at 72 h in series [5] is more than 10 µM.

These data come from ChEMBL document CHEMBL5308541, “MAIP: An Open-Source Tool to Enrich High-Throughput Screening Output and Identify Novel, Druglike Molecules with Antimalarial Activity” (ACS Med Chem Lett, 2023).
